The text below walks through data of patent US5620973A, “Tetracyclic condensed heterocyclic compounds and their use” (priority 1993, dated 1997).

Structures can show the parent of a compound that is named as a salt. Where two headings read alike, the source gives them in different places.

The conditions of data set [1]: cited from earlier work; for anti-senile dementia activity: Int. J. Clin. Pharmacol. Ther. Toxicol. 29, 23-37, 1991.
In data set [2] the target is T1, Acetylcholinesterase (Rattus norvegicus, UniProt P37136).
T1 construct: using the S1 fraction of a male Wistar rat cerebral cortex homogenate as a source of cholinesterase; from tissue; host or cells: male Wistar rat cerebral cortex homogenate, S1 fraction
T1 sequence (P37136 32-614): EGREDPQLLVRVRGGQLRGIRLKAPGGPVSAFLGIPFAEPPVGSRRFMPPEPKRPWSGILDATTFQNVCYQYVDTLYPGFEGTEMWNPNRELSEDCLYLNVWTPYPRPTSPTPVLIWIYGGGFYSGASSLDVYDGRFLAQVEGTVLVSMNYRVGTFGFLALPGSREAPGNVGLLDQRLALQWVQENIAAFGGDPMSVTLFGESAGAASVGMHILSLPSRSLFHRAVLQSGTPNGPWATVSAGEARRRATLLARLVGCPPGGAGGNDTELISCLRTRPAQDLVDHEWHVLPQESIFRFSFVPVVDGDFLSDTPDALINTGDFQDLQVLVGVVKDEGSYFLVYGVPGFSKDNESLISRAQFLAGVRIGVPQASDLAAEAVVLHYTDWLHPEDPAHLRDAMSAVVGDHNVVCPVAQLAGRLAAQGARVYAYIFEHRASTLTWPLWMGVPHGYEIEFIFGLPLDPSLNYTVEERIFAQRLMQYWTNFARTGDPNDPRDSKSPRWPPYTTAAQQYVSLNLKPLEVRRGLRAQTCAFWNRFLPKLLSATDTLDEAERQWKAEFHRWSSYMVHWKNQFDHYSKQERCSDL
Description: biochemical. Details: species or system male Wistar rat.
Description: The cholinesterase inhibitory activity of the compound of this invention was evaluated using (acetyl[[^3 H])-acetylcholine. Thus, using the S1 fraction of a male Wistar rat cerebral cortex homogenate as a source of cholinesterase, (acetyl[^3 H])-acetylcholine as a substrate, and the compound of this invention as a test substance, the system was incubated for 30 minutes. The reaction was then stopped and a toluenic scincillator was added. After shaking, [^3 H]-acetic acid produced and transferred into the toluene layer was counted with a liquid scincillation counter to estimate the cholinesterase inhibitory activity of the test substance.

Data set [3] deals with norepinephrine (NE) reuptake. Description: monoamine reuptake inhibitory activity, [^3 H]-norepinephrine (NE). It is filed as biochemical, male JCl: Wistar rats. The conditions noted are these: [^3 H]-NE 11 nM; P2 pellet of rat cerebral cortex and hippocampus; 37° C., 5 minutes; read-out: Monoamine uptake inhibitory activity IC50, NE. As for the experimental part:
(§1) The monoamine reuptake inhibitory activity of the compound of this invention was evaluated using [^3 H]-norepinephrine (NE) and [^3 H]-serotonin(5-HT).
(§2) Thus, the brain was enuleated from male JCl: Wistar rats (aged 9-13 weeks) and the cerebral cortex and the hippocampus were isolated. The tissue was homogenized (Potter, 5 strokes) with about 10-15 volumes of ice-cooled 0.32M sucrose and centrifuged at 1.000×g for 10 minutes. The supernatant was further centrifuged at 20,000×g for 20 minutes to provide a pellet (P2). This pellet was suspended in Krebs-Ringer bicarbonate solution (KRB) (KRB: 116 mM NaCl, 4.8 mM KCl, 1.3 mM CaCl2, 1,2 mM MgSO4, 1,2 mM NaH2 PO4, 25 mM NaHCO3, 0.1 mM EDTA-2Na, 11.1 mM D-glucose, 0.11 mM L-ascorbic acid, 0.01 mM pargyline-HCl; 95% O2 /5% CO2) and aliquots of the suspension were used for assays.
(§3) The test compound (10 μl as dissolved in DMSO at 100 times the final concentration) was mixed with 900 μl of the P2 suspension and the mixture was preincubated at 37° C. for 5 minutes. Then, 100 μl of [^3 H]-NE (final concentration 11 nM) or [^3 H]-5-HT (final concentration 10 nM) was added and the mixture was incubated at 37° C. for 5 minutes. […] The filter was transferred to a minature vial, 4 ml of scintillator was added, and the radioactivity was counted with a liquid scintillation counter. […]

Data set [4] concerns serotonin (5-HT) reuptake. Briefly: monoamine reuptake inhibitory activity, [^3 H]-serotonin (5-HT). It is filed as biochemical, male JCl: Wistar rats. The conditions noted are these: [^3 H]-5-HT 10 nM; P2 pellet of rat cerebral cortex and hippocampus; 37° C., 5 minutes; read-out: Monoamine uptake inhibitory activity IC50, 5-HT. Here is the method: as §1, §2, §3
Setting [5] is: S1 fraction of male Wistar rat cerebral cortex homogenate, 30 minutes incubation, read-out: Acetylcholinesterase inhibitory activity IC50.

As to `CNC(=O)Oc1ccc2c(c1)[C@]1(C)CCN(C)[C@@H]1N2C` (stereo in doubt) [Physostigmine, physostigmine], the anti-senile dementia activity result in data set [1] is on record as “have been found to have anti-senile dementia activity”. For the same molecule, in data set [1] (background), the duration of action entry was “short duration of action” and the toxic potential entry was “high toxic potential”.
The term IC50 denotes the concentration at which inhibition is half-maximal. Regarding `O=C(CCN1CCN(Cc2ccccc2)CC1)c1cc2c3c(c1)C1CCCCC1N3C(=O)CC2` (stereo not drawn) [Example 1, 5-[3-[4-(Phenylmethyl)-1-piperazinyl]-1-oxopropyl]-2,3,6b,7,8,9,10,10a-octahydro-1H-pyrido[3,2,1-jk]carbazol-6-one dihydrochloride], the IC50 in data set [2] (setting [5]) came to 77.5 nM.
Take `O=C(CCN1CCN(Cc2ccccc2)CC1)c1ccc2c(c1)CN1C(=O)c3ccccc3C1CC2` (stereo not drawn) [Example 2-1]: the half-maximal inhibitory concentration (IC50) came to 1040 nM in data set [3], 70 nM in data set [4] and 16.4 nM in data set [2] (setting [5]).
For `O=C(CCC1CCN(Cc2ccccc2)CC1)c1ccc2c(c1)CN1C(=O)c3ccccc3C1CC2` (stereo not drawn) [Example 4, 3-[3-[1-(Phenylmethyl)-4-piperidinyl]-1-oxopropyl]-7,11b,12,13-tetrahydro-5H-isoindolo[2,1-b][2]benzazepin-7-one hydrochloride], in data set [2], the IC50 worked out at 2.4 nM.
For `O=C(CCN1CCN(Cc2cccc(Cl)c2)CC1)c1ccc2c(c1)CN1C(=O)c3ccccc3C1CC2` (stereo not drawn) [Example 6-2], the IC50 in data set [2] (setting [5]) amounted to 65.5 nM.
On the same count and under the same terms, the result for `O=C(CCN1CCN(Cc2cccc(F)c2)CC1)c1ccc2c(c1)CN1C(=O)c3ccccc3C1CC2` (stereo not drawn) [Example 6-3] reads 17.4 nM.
In data set [2], `O=C(CCC1CCN(Cc2ccccc2)CC1)c1cc2c3c(c1)C1CCCCC1N3C(=O)CC2` (stereo not drawn) [Example 7, 5-[3-[1-(Phenylmethyl)-4-piperidinyl]1-oxopropyl]-2,3,6b, 7,8,9,10,10a-octahydro-1H-pyrido[3,2,1-jk]carbazol-6-one fumarate] gave an IC50 of 7.93 nM.
As to `CN(C)CCCN1c2ccccc2CCc2ccccc21` [Imipramine, imipramine, reference compound], the IC50 in data set [3] came to 1120 nM; in data set [4], 63 nM.
In the case of `Nc1c2c(nc3ccccc13)CCCC2` [THA, tacrine], the anti-senile dementia activity result in data set [1] was “have been found to have anti-senile dementia activity”. The hepatic impairment entry in data set [1] (background) is “severe hepatic impairment is often associated”.
